# pIC50: −log10 of the molar value.
# Biological target: T1, Human Factor XIIa (Homo sapiens, UniProt P00748)
# T1 construct: Human Factor XIIa (Enzyme Research Laboratories) was incubated; purchased Enzyme Research Laboratories
# T1 sequence (P00748 373-615 limits assumed): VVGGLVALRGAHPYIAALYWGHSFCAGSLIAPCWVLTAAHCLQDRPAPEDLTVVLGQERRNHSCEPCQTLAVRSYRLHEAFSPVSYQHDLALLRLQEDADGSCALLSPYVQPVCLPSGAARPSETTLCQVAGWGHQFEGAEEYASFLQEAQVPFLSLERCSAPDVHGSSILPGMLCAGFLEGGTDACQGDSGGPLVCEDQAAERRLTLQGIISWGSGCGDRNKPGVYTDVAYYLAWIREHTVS
# T1 sequence (P00748 20-372 partner limits assumed): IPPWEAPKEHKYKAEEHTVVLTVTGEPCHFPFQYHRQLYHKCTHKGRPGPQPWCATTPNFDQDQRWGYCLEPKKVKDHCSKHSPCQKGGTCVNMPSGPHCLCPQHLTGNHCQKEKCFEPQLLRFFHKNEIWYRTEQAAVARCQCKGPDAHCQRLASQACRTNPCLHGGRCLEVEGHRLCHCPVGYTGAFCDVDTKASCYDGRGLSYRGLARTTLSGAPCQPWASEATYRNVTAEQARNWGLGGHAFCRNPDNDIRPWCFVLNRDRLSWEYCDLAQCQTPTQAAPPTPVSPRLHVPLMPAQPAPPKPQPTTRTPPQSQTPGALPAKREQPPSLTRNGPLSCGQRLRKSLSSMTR
# Experiment: Determination of FXIIa inhibitory activity in vitro (fluorogenic substrate H-DPro-Phe-Arg-AFC)
# Format: biochemical
# Conditions: 25° C., residual enzyme activity (initial rate)
row,pIC50,Structure (SMILES)
1,4.40 to 5.00,Nc1nccc2cc(CNC(=O)c3cc(Cl)c(Cc4ccccc4O)s3)ccc12 [Example 25.05]
2,4.40 to 5.00,COc1ccc(O)c(Cc2sc(C(=O)NCc3ccc4c(N)nccc4c3)cc2Cl)c1 [Example 25.06]
3,5.52 to 6.00,CN1CCC(CCc2sc(C(=O)NCc3ccc4c(N)nccc4c3)cc2Cl)CC1 [Example 25.11]
4,5.00 to 5.52,CN1CCC(CCc2csc(C(=O)NCc3ccc4c(N)nccc4c3)c2)CC1 [Example 25.12]
5,5.00 to 5.52,Nc1nccc2cc(CNC(=O)c3cc(Br)cs3)ccc12 [Example 25.13]
6,5.52 to 6.00,Nc1nccc2cc(CNC(=O)c3nc(CCC4CCNCC4)cs3)ccc12 [Example 25.14]
7,> 6.00,"CN1CCC(CCc2csc(C(=O)NCc3ccc4c(N)nccc4c3)n2)CC1 [Example 25.15, N-((1-Aminoisoquinolin-6-yl)methyl)-4-(2-(1-methylpiperidin-4-yl)ethyl)thiazole-2-carboxamide]"
8,4.40 to 5.00,CN1CCC(Nc2csc(C(=O)NCc3ccc4c(N)nccc4c3)c2)CC1 [Example 25.16]
9,4.40 to 5.00,CN1CCC(CNc2csc(C(=O)NCc3ccc4c(N)nccc4c3)c2)CC1 [Example 25.17]
10,4.40 to 5.00,"Cc1nc2[nH]ccc2c(C)c1CNC(=O)c1cc(Cl)c(C)s1 [Example 25.101, 4-Chloro-N-((4,6-dimethyl-1H-pyrrolo[2,3-b]pyridin-5-yl)methyl)-5-methylthiophene-2-carboxamide]"
11,4.40 to 5.00,"Cc1sc(C(=O)NCc2cc3c(N)nccc3s2)cc1Cl [Example 25.103, N-((4-aminothieno[3,2-c]pyridin-2-yl)methyl)-4-chloro-5-methylthiophene-2-carboxamide]"
12,4.40 to 5.00,"Cc1sc(C(=O)NCc2ccc3c(N)nccc3c2F)cc1Cl [Example 25.104, N-((1-Amino-5-fluoroisoquinolin-6-yl)methyl)-4-chloro-5-methylthiophene-2-carboxamide]"
13,4.15 to 4.40,"Cc1cc(N)nc(C)c1CNC(=O)c1cc(Cl)c(C)s1 [Example 25.105, N-[(6-Amino-2,4-dimethylpyridin-3-yl)methyl]-4-chloro-5-methylthiophene-2-carboxamide]"
14,4.40 to 5.00,Nc1nccc2cc(CNC(=O)c3cc4cccc(Cl)c4s3)ccc12 [Example 25.204]
15,5.00 to 5.52,Nc1nccc2cc(CNC(=O)c3cc4cc(F)ccc4s3)ccc12 [Example 25.205]
16,4.40 to 5.00,Nc1nccc2cc(CNC(=O)c3cc4c(F)cccc4s3)ccc12 [Example 25.206]
17,5.00 to 5.52,CN1CCC(Nc2cccc3sc(C(=O)NCc4ccc5c(N)nccc5c4)cc23)CC1 [Example 25.208]
18,5.00 to 5.52,CN1CCC(CNc2cccc3sc(C(=O)NCc4ccc5c(N)nccc5c4)cc23)CC1 [Example 25.209]
19,5.00 to 5.52,Cc1sc(C(=O)NCc2ccc3c(N)nccc3c2)c(NCC2CCN(C)CC2)c1C [Example 26.11]
20,5.00 to 5.52,Cc1cc(CCC2CCN(C)CC2)c(C(=O)NCc2ccc3c(N)nccc3c2)s1 [Example 26.12]
21,5.00 to 5.52,CN1CCC(CNc2ccsc2C(=O)NCc2ccc3c(N)nccc3c2)CC1 [Example 26.13]
22,4.40 to 5.00,Cc1nsc(C(=O)NCc2ccc3c(N)nccc3c2)c1NCC1CCNCC1 [Example 26.14]
23,5.00 to 5.52,Cc1nsc(C(=O)NCc2ccc3c(N)nccc3c2)c1NCC1CCN(C)CC1 [Example 26.15]
24,5.52 to 6.00,"CN1CCC(CNc2ncsc2C(=O)NCc2ccc3c(N)nccc3c2)CC1 [Example 26.16, N-((1-Aminoisoquinolin-6-yl)methyl)-4-(((1-methylpiperidin-4-yl)methyl)amino)thiazole-5-carboxamide]"
25,5.52 to 6.00,CN1CCC(CCCn2nccc2C(=O)NCc2ccc3c(N)nccc3c2)CC1 [Example 35.08]
26,4.40 to 5.00,CCOc1ccc(Cn2nccc2C(=O)NCc2ccc3c(N)nccc3c2)cc1 [Example 35.09]
27,4.40 to 5.00,"CN1CCC(CCn2nccc2C(=O)NCc2cc3c(N)nccc3s2)CC1 [Example 46.01, N-((4-aminothieno[3,2-c]pyridin-2-yl)methyl)-1-(2-(1-methylpiperidin-4-yl)ethyl)-1H-pyrazole-5-carboxamide]"

# — US20220289727A1, “ENZYME INHIBITORS” (KALVISTA PHARMACEUTICALS LIMITED, priority 2019, published 2022)
